Experimental data: PMC6540241, “Targeting Tumor Markers with Antisense Peptides: An Example of Human Prostate Specific Antigen” (International Journal of Molecular Sciences, 2019)
Where a SMILES comes first, the peptide text is derived from it. Where no end group is shown, it is not given here. The star is where a group is joined. Biotin = O=C1N[C@H]2[C@H](CS[C@H]2CCCCC(=O)*)N1

B1: N-terminal biotin antisense peptide Biotin-AVRDKVG (peptide)
peptide: Biotin-AVRDKVG
modifications: not fully specified
notes: Some sentences print AKRDKVG; also called biotinylated antisense peptide AVRDKVG; antisense paratope Biotin-AVRDKVG; source: synthetic peptide, bought: GenScript (>97% purity)
B2: Human prostate specific antigen (hPSA) peptide 53–59: RHSLFHP (peptide)
peptide: RHSLFHP
notes: human prostate specific antigen (hPSA), residues 53-59 (R53-P59); 77-83 of the precursor P07288; In the magnetic particle enzyme immunoassay the peptide was coupled by EDC to SPHERO carboxyl magnetic particles; also called sense peptide; source: synthetic peptide, bought: GenScript (>97% purity)

Experiments:
[1] = tested on: human prostate specific antigen (hPSA) in prostate cancer tissue; test: Immunohistochemical staining of hPSA, protocol 2 (biotinylated peptide instead of primary antibody); parameters: key to overall quality of scoring (NordiQC) / hPSA staining quality score (NordiQC): 3: Staining reaction considered perfect or close to perfect.; 2: Staining reaction considered fully acceptable. The protocol may be optimized to ensure the best staining intensity and signal-to-noise ratio.; 1: Staining considered insufficient.; 0: Staining considered very insufficient
Method: (§1) Immunohistochemistry was performed on deparafinized slides (xylen and a series of ethanol solutions) at room temperature (20–25 °C). The phosphate-buffered saline (PBS) was used, with a pH of 7.2 and containing disodium hydrogen phosphate, sodium chloride, potassium chloride and potassium dihydrogen phosphate was used. PBS stock solution: 4 g KH2PO4, 23 g Na2HPO4, 4 g KCl, 160 g NaCl and 810 mL distilled water. Before staining, 100 mL of stock solution was diluted with 1900 mL of distilled water.
All slides (from seven patients) were selected from the repository of prostate cancer tissue, with diagnosis confirmed by consensus of two independent pathologists. The two pathologists who examined the slides stained with antisense peptides were unconnected with the pathologists who established the initial diagnosis.
(§2) Each of the two immunohistochemistry protocols for PSA staining consisted of six steps. Steps 1, 4, 5 and 6 of protocol 1 and protocol 2 were identical, while steps 2 and 3 differed (Figure 5 and Figure 6). For this study, the slides were kept in the dark at room temperature (20–25 °C), to prevent fading as a result of exposure to strong light. They were analyzed using an Olympus BX41 microscope, with an Olympus DP71 camera set to three levels of magnification: less than 40×, 100×, and 500×.
(§3) The staining protocol 2 was a modified IHC protocol 1, as follows: In step 2 we used antisense peptide Biotin-AVRDKVG, instead of the primary monoclonal mouse anti-human PSA antibody, in step 3 we used rabbit polyclonal antibody to biotin conjugated to HRP, instead of HRP labeled polymer conjugated to goat anti-mouse immunoglobulins (Figure 5), with peptide Biotin-EHFRW as a negative control (Figure 7). Otherwise, the procedures and chemicals were identical. Quality control for the PSA staining was investigated using NordiQC scoring criteria: 0—Poor; 1—Borderline; 2—Good; 3—Optimal. The scale is presented in Table A2, and the final results given in Table 4 are expressed as a sum of scores.
IHC staining―protocol 2: • The specimen was covered with peroxidase block, i.e., 100 μL of 0.03% hydrogen peroxide containing sodium azide (Dako, Glostrup, Denmark), and incubated for four minutes. Following this, the specimen was gently rinsed with phosphate buffered saline (PBS), and placed in a fresh buffer bath. • Biotinylated antisense peptide AVRDKVG (GenScript, Piscataway, NJ, USA) directed to PSA epitope 53–59 (RHSLFHP) was used to cover the specimen. Five milligrams of Biotin-AVRDKVG antisense was diluted in 2.5 mL PBS. Dilutions 1:10, 1:50, 1:100, 1:200 and 1:500 were applied to cover the specimen. A 100 μL volume was used per section. After 30 min of incubation, each specimen was gently rinsed with PBS and placed in a fresh buffer bath. • Anti-biotin antibody conjugated to HRP (ab34645, Abcam, Cambridge, UK) was applied to cover the specimen. Of the antibody 10 mg/2 mL was diluted 1:100. One hundred microliters of the diluted antibody was applied to cover each specimen, followed by a 30 min incubation. After the incubation, the specimen was gently rinsed with PBS and placed in a fresh buffer bath. • The specimen was covered with 100 μL of AEC + substrate-chromogen solution for 10 min, i.e., 3-amino-9-ethylcarbazole containing hydrogen peroxide, stabilizers, enhancers and an anti-microbial agent (Dako, Glostrup, Denmark). After that period the specimen was again rinsed with PBS. • The slides were immersed in a bath of aqueous hematoxylin (Mayerr’s hematoxylin), and rinsed gently in a distilled water bath. The slides were dipped 10 times into a bath of ammonia (0.037 mol/L), and then rinsed in a bath of distilled water for four minutes. • The specimens were mounted and coverslipped with non-aqueous permanent mounting medium Ultramount.

[2] = molecular target: T1, hPSA peptide RHSLFHP coated onto carboxyl magnetic particles (Homo sapiens, UniProt P07288); test: Magnetic particle enzyme immunoassay (MPEIA); type: binding
T1 construct: Human prostate specific antigen (hPSA) peptide 53–59: RHSLFHP; purchased GenScript; host or cells: synthetic peptide
Method: Briefly, the reaction mixture was composed of 2 mL sodium acetate buffer (0.01M, pH 5.0), 2 mg of peptide and 2 mL of 2.5% w/v carboxyl magnetic particles―1.14 μm, 20 mg of EDC. Reactions proceeded in glass reaction tubes overnight at room temperature in a rotary mixer. Tubes were centrifuged at 3000× g for 15 min, supernatant was carefully discarded, and the pellets were washed twice in 4 mL isotonic buffered saline (IBS), followed by centrifugation. After washing, coated magnetic particles were resuspended in 4 mL of PBS containing 0.05% Tween 20.
Two folds serial dilutions (1.09–70 µM) of biotinylated antisense peptide AVRDKVG were made in 96-well microtiter plates to generate standard curves (Figure 4b). Mismatched peptide Biotin-EHFRW was used as a negative control (Figure 4b). A suspension (1.25% w/v) of carboxyl magnetic particles, coated with sense peptide RHSLFHP, was added to each well (40 µL/well). The plates were incubated at room temperature for 30 min and washed with PBS-Tween 20 five times. The washing solution was removed each time using the Spherotech UltraMag Separator (Sperotech, Inc., Lake Forest, IL, USA).
A blocking solution (PBS with 1% BSA) was added to the wells and incubated at room temperature for one hour. […] The absorbances were read at 450 nm on a multiwell plate reader. The data were analyzed using GraphPad Prism software version 5.

[3] = molecular target: T2, hPSA peptide RHSLFHP (residues 53–59) (Homo sapiens, UniProt P07288); test: Microscale thermophoresis (MST); type: binding
T2 construct: Human prostate specific antigen (hPSA) peptide 53–59: RHSLFHP; purchased GenScript; host or cells: synthetic peptide
Method: The binding between the biotinylated antisense peptide AVRDKVG and a titrant, i.e., hPSA peptide RHSLFHP (Figure 3b), was observed by the method of microscale thermophoresis (MST). MST-analysis was performed using the Monolith.NT.115 instrument (NanoTemper Technologies GmbH, Munich, Germany). Biotin-AVRDKVG antisense directed to the hPSA region 53–59 was labeled with DY-495 (Red). The labeling procedure and the subsequent removal of unattached dye were performed within 45 min. A serial dilution of the non-labeled hPSA titrant was prepared in a 10 mM phosphate buffer. The concentration of biotin-hPSA antisense labelled with DY-495 was kept constant, while the concentration of the non-fluorescent binding partner (hPSA peptide RHSLFHP53–59) was varied between 0.0854 µM and 2.8 mM. After a short incubation, the samples were loaded into MST NT.115 standard glass capillaries and the MST-analysis was performed. The data were analyzed using GraphPad Prism software version 5.

liver tissue = test: Immunohistochemical staining of negative control tissue (protocol 2); parameters: species or system human
Method: as §1
as §2, with “For this study, the slides were kept in the dark at room temperature (20–25 °C), to prevent fading as a result of exposure to strong light.” left out
as §3, with “Otherwise, the procedures and chemicals were identical. Quality control for the PSA staining was investigated using NordiQC scoring criteria: 0—Poor; 1—Borderline; 2—Good; 3—Optimal.” left out, “scores. […]” for “scores.”

[4] = molecular target: B2; test: magnetic particle enzyme immunoassay (MPEIA); RHSLFHP coupled by EDC to SPHERO carboxyl magnetic particles; biotinylated peptide in two-fold dilutions 1.09–70 µM, room temperature, 30 min, PBS-Tween 20 washes; detected with streptavidin-peroxidase polymer and OPD, absorbance at 450 nm; conditions: both partners purified
[5] = molecular target: B1; test: MST; Biotin-AVRDKVG labelled with DY-495 kept constant; unlabelled RHSLFHP titrated 0.0854 µM to 2.8 mM in 10 mM phosphate buffer; Monolith NT.115, standard capillaries; conditions: both partners purified
[6] = mismatched peptide, negative control

With `CC(C)[C@H](NC(=O)[C@H](C)NC(=O)CCCC[C@@H]1SC[C@@H]2NC(=O)N[C@@H]21)C(=O)N[C@@H](CCCNC(=N)N)C(=O)N[C@@H](CC(=O)O)C(=O)N[C@@H](CCCCN)C(=O)N[C@H](C(=O)NCC(=O)O)C(C)C` [Biotin-AVRDKVG] (Biotin-AVRDKVG-OH) the “signal to noise ratio versus standard monoclonal antibody” value ([1]; compared with primary monoclonal mouse anti-human PSA antibody) was “comparable to the standard primary monoclonal mouse anti-human PSA antibody”, the “hPSA staining quality score (NordiQC)” value ([1]; dilution 1:10 (of 5 mg in 2.5 mL PBS), patient 1) was 0 and the “hPSA staining quality score (NordiQC)” value ([1]; dilution 1:10, patient 2) was 0. For the same molecule, the “hPSA staining quality score (NordiQC)” value ([1]; dilution 1:10, patient 3) was 0, the “hPSA staining quality score (NordiQC)” value ([1]; dilution 1:10, patient 4) was 0 and the “hPSA staining quality score (NordiQC)” value ([1]; dilution 1:10, patient 5) was 0. The “hPSA staining quality score (NordiQC)” value ([1]; dilution 1:10, patient 6) was 0, the “hPSA staining quality score (NordiQC)” value ([1]; dilution 1:10, patient 7) was 0 and the “Sum of scores (NordiQC)” value ([1]; dilution 1:10, seven patients) was 0. The “hPSA staining quality score (NordiQC)” value ([1]; dilution 1:50, patient 1) was 1, the “hPSA staining quality score (NordiQC)” value ([1]; dilution 1:50, patient 2) was 1 and the “hPSA staining quality score (NordiQC)” value ([1]; dilution 1:50, patient 3) was 2. For the same molecule, the “hPSA staining quality score (NordiQC)” value ([1]; dilution 1:50, patient 4) was 1, the “hPSA staining quality score (NordiQC)” value ([1]; dilution 1:50, patient 5) was 1 and the “hPSA staining quality score (NordiQC)” value ([1]; dilution 1:50, patient 6) was 1. For the same molecule, the “hPSA staining quality score (NordiQC)” value ([1]; dilution 1:50, patient 7) was 1, the “Sum of scores (NordiQC)” value ([1]; dilution 1:50, seven patients) was 8 and the “staining of prostate cancer tissue” value ([1]; dilution 1:100) was “solid staining signal with minimal or absent background noise”. For the same molecule, the “hPSA staining quality score (NordiQC)” value ([1]; dilution 1:100, patient 1) was 2, the “hPSA staining quality score (NordiQC)” value ([1]; dilution 1:100, patient 2) was 2 and the “hPSA staining quality score (NordiQC)” value ([1]; dilution 1:100, patient 3) was 3. For the same molecule, the “hPSA staining quality score (NordiQC)” value ([1]; dilution 1:100, patient 4) was 2, the “hPSA staining quality score (NordiQC)” value ([1]; dilution 1:100, patient 5) was 3 and the “hPSA staining quality score (NordiQC)” value ([1]; dilution 1:100, patient 6) was 2. The “hPSA staining quality score (NordiQC)” value ([1]; dilution 1:100, patient 7) was 2, the “Sum of scores (NordiQC)” value ([1]; dilution 1:100, seven patients) was 16 and the “hPSA staining quality score (NordiQC)” value ([1]; dilution 1:200, patient 1) was 0. The “hPSA staining quality score (NordiQC)” value ([1]; dilution 1:200, patient 2) was 1, the “hPSA staining quality score (NordiQC)” value ([1]; dilution 1:200, patient 3) was 1 and the “hPSA staining quality score (NordiQC)” value ([1]; dilution 1:200, patient 4) was 1. For the same molecule, the “hPSA staining quality score (NordiQC)” value ([1]; dilution 1:200, patient 5) was 1, the “hPSA staining quality score (NordiQC)” value ([1]; dilution 1:200, patient 6) was 1 and the “hPSA staining quality score (NordiQC)” value ([1]; dilution 1:200, patient 7) was 1. For the same molecule, the “Sum of scores (NordiQC)” value ([1]; dilution 1:200, seven patients) was 6, the “hPSA staining quality score (NordiQC)” value ([1]; dilution 1:500, patient 1) was 0 and the “hPSA staining quality score (NordiQC)” value ([1]; dilution 1:500, patient 2) was 0. The “hPSA staining quality score (NordiQC)” value ([1]; dilution 1:500, patient 3) was 0, the “hPSA staining quality score (NordiQC)” value ([1]; dilution 1:500, patient 4) was 0 and the “hPSA staining quality score (NordiQC)” value ([1]; dilution 1:500, patient 5) was 0. For the same molecule, the “hPSA staining quality score (NordiQC)” value ([1]; dilution 1:500, patient 6) was 0, the “hPSA staining quality score (NordiQC)” value ([1]; dilution 1:500, patient 7) was 0 and the “Sum of scores (NordiQC)” value ([1]; dilution 1:500, seven patients) was 0. For the same molecule, the “staining of prostate cancer tissue” value ([1]; dilutions 1:10 and 1:50) was “increase in background noise”, the “staining of prostate cancer tissue” value ([1]; dilutions 1:200 and 1:500) was “loss of staining signal” and the “non-specific staining of prostate tissue” value ([1]; high concentration (1:10)) was “increase in background”. The “overall quality of scoring (NordiQC)” value ([1]; overall) was 2, the Kd ([2]; peptide 1.09–70 µM, 30 min, room temperature, streptavidin-peroxidase/OPD, 450 nm, r^2 = 0.996, mean ± SEM (SEM 0.20 µM), read-out: dissociation constant (Kd)) was 24.6 µM and the Kd ([3]; Biotin-AVRDKVG labelled with DY-495, constant, RHSLFHP 0.0854 µM–2.8 mM, 10 mM phosphate buffer, r^2 = 0.989, mean ± SEM, read-out: dissociation constant (Kd)) was 24.3 ± 0.74 µM. The “effect of N-terminal biotinylation on binding” value ([3]; versus Kd of the non-biotinylated peptide by tryptophan fluorescence) was “does not significantly alter the binding to hPSA region 53–59 (RHSLFHP)” and the “staining of negative control tissue” value (liver tissue) was “did not stain”.

With “Biotin-EHFRW [N-terminal biotin mismatched peptide, negative control, reference compound]” the “staining of hPSA of the prostate tissue” value [1, 6] was “did not stain”.

With “Biotin-EHFRW: N-terminal biotin mismatched peptide, negative control [reference compound]” the “binding to hPSA epitope RHSLFHP” value [2, 6] was “does not bind”.

B1 showed a Kd [4] of 24.6 µM.

B2 was tested, and the Kd [5] was 24.3 µM.
